Reference: ChEMBL document CHEMBL4828781, “Novel Heteroaromatic Carboxamide Derivatives as Plasma Kallikrein Inhibitors for Treating Diabetic Complications, Ocular Diseases and Edema-Associated Diseases” (ACS Med Chem Lett, 2021)

Biological target: Plasma kallikrein (Homo sapiens, UniProt P03952)
Assay: Inhibition of human plasma kallikrein using […] as fluorogenic substrate measured every 2 mins for 12 mins by microplate reader analysis

Plasma kallikrein, sequence (P03952 20-390 limits assumed): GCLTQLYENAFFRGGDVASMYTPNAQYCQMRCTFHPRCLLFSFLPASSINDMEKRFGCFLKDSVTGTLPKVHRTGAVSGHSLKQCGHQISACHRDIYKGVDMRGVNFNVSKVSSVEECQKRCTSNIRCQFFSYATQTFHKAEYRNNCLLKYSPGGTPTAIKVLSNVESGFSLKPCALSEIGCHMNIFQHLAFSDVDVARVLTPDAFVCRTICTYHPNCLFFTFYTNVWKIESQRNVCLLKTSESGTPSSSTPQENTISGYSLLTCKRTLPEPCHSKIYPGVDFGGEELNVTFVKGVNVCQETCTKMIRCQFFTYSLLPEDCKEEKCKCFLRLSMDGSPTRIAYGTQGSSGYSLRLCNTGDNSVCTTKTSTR
Plasma kallikrein, sequence (P03952 391-638 limits assumed): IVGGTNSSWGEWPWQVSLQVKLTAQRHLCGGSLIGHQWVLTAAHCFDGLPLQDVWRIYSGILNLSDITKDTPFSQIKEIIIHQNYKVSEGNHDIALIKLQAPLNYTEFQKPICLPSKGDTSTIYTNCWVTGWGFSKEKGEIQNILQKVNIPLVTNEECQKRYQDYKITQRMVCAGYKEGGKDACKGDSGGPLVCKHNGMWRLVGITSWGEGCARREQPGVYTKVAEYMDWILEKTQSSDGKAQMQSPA

IC50: 0.3 nM
SMILES: Cc1c(Cn2cnc(C(=O)N[C@@H]3CCc4c3ncn4C)c2)ccc(N2CC3CC3C2)c1C#N (stereo partly specified)
